According to US20100004301A1, “Benzoxazoles Useful in the Treatment of Inflammation” (priority 2006, published 2010):

Each compound was assayed against T1, mPGES-1 (Homo sapiens, UniProt O14684) (assay: mPGES-1 enzyme assay (conversion of PGH2 to PGE2, HPLC analysis)). Settings: mPGES-1 expressed in E. coli, membrane fraction; 25 min preincubation, 60 s PGH2 reaction, room temperature.
T1 construct: made in house; host or cells: E. coli
T1 sequence (O14684 1-152): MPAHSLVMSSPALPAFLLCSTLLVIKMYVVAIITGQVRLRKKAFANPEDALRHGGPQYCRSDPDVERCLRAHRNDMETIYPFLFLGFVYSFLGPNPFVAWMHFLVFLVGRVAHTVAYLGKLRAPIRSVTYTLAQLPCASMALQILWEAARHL
Type: biochemical
Protocol: In the assay mPGES-1 catalyzes the reaction where the substrate PGH2 is converted to PGE2. mPGES-1 is expressed in E. coli and the membrane fraction is dissolved in 20 mM NaPi-buffer pH 8.0 and stored at −80° C. In the assay mPGES-1 is dissolved in 0.1M KPi-buffer pH 7.35 with 2.5 mM glutathione. The stop solution consists of H2O/MeCN (7/3), containing FeCl2 (25 mM) and HCl (0.15 M). The assay is performed at room temperature in 96-well plates. Analysis of the amount of PGE2 is performed with reversed phase HPLC (Waters 2795 equipped with a 3.9×150 mm C18 column). The mobile phase consists of H2O/MeCN (7/3), containing TFA (0.056%), and absorbance is measured at 195 nm with a Waters 2487 UV-detector.
The following is added chronologically to each well: • 1. 100 μL mPGES-1 in KPi-buffer with glutathione. Total protein concentration: 0.02 mg/mL. • 2. 1 μL inhibitor in DMSO. Incubation of the plate at room temperature for 25 minutes. • 3. 4 μL of a 0.25 mM PGH2 solution. Incubation of the plate at room temperature for 60 seconds. • 4. 100 μL stop solution. • 180 μL per sample is analyzed with HPLC.
In the case of `CC(C)Oc1ccc(-c2ccc3oc(-c4cc(NS(=O)(=O)c5cc(Cl)ccc5Cl)ccc4Cl)nc3c2)cc1` [Example 4, 2,5-Dichloro-N-{4-chloro-3-[5-(4-isopropoxyphenyl)benzoxazol-2-yl]phenyl}benzenesulfonamide], the IC50 is reported as 600 nM.
`Cc1cc(C)cc(-c2cc(-c3nc4cc(C)ccc4o3)cc(NC(=O)c3ccccc3C(F)(F)F)c2N)c1` [Example 5, N-[2-Amino-3′,5′-dimethyl-5-(5-methylbenzoxazol-2-yl)biphenyl-3-yl]-2-trifluoromethylbenzamide] gave an IC50 of 130 nM.
Compound `CC(C)(C)c1ccc2oc(-c3cc(COc4cccc(Cl)c4)cc(NC(=O)c4ccccc4C(F)(F)F)c3)nc2c1` [Example 7, N-[3-(5-tert-Butylbenzoxazol-2-yl)-5-(3-chlorophenoxymethyl)phenyl]-2-trifluoromethylbenzamide] has an IC50 of 270 nM.
